In US12193465B2, “Materials and methods for extending shelf-life of foods” (JP Laboratories, Inc., priority 2021, dated 2025):

How the values were obtained:
[1] = system: fungus; assay: Fungus growth on treated foods stored in closed containers at room temperature; details: for Spoilage Time - Sample: Fungus
Source text: (§1) Most of the foods changed color or texture.
Glass jars and bottles were also used. The containers were snap-closed or with a lid.
(§2) These bags were sealed with a heat sealer.
(§3) The assembly was shaken periodically.

[2] = General shelf-life extension of foods (spoilage criteria of Example 9); details: for Effectiveness for controlling one or more spoilage criteria: variety of foods
Protocol: All studies were conducted at a room temperature of about 25° C. To determine the effectiveness of a shelf-life extender, a control sample which was untreated with any shelf-life extenders, was tested identical to the test samples. […] All studies in those Examples of Tables 1-6 were conducted in closed plastic or glass containers. Containers, such as plastic containers, without or with lids having holes can be used if it is advantageous to let excess moisture escape or to prevent condensation of moisture released by some produce.
Food exposed to preservatives or by a sachet was placed in typically polystyrene or acrylic containers depending upon the size and number of food items. Glass jars and bottles were also used. The containers were snap-closed or with a lid. The containers were purchased mainly from Amazon or Webstaurant.com store. When needed, plastic containers with holes or without lids were used.
For controlled exposure and a constant supply of a preservative to foods, sachets containing one or more drops of preservatives were used. Sachets were made by placing an appropriate amount of a preservative in a plastic bag containing a piece of paper and heat sealing the bag. The sachet bag materials used were Tyvek® for solid preservative, polyethylene, polyester and high barrier multilayer films were used for liquid preservatives. These bags were sealed with a heat sealer. The sachet was typically applied on one side of the container containing food.
A piece of paper napkin was taped inside a 100 microns thick polyethylene or polyester Ziploc bag. The size of the bag varied from ˜20 cm×30 cm to ˜60 cm×90 cm depended on the sample with sandwich bags up to gallon bags being exemplary. The paper napkin was wetted with 0.1-0.5 ml of a preservative or a mixture of preservatives. A tray of aluminum, stainless steel or glass containing the foods was placed inside the plastic (polyethylene, polyester and multilayer-laminated) bag and almost closed by locking the Ziploc. Air was blown with an air blower from the unclosed end until the bag was fully blown and then quickly closed tightly by locking the remaining Ziploc. If a preservative was a sublimable solid, it was placed in a petri dish and then placed inside the bag in the tray before blowing air. The exposure time was varied from five minutes to a day depending upon the food. […] The assembly was shaken periodically. After the predetermined time, the tray containing produce was removed from the bag, allowed to de-gas for 10-30 minutes in air and the produce was then placed in an appropriately sized container. Glass and stainless steel containers with lids were also often used.
A solution of one or more preservatives was prepared in a large (e.g., 2-10 liter) glass beaker or a jar. A sack containing the food was prepared by placing the food in a plastic mesh bag. The sack was placed in the solution of the preservative. A smaller glass beaker containing proper amount of water was place over the package to keep the sack soaked in the solution of the preservative during the treatment. The solution was stirred either with a plastic spatula or with a magnet over a magnetic stirrer. After treatment, the mesh sack was removed, the produce was washed in a tray with running water, strained and air dried at 30° C. in an air blowing oven for about 5-10 minutes, while shaking the tray or turning the food periodically followed by placing the sample in an appropriate container.
The food was placed in mesh trays and sprayed with an aqueous solution (1-10%) of a preservative while shaking the tray or turning the food. The solution was allowed to drain from the tray and the food was air dried in an air blowing oven at 30° C. for about 5-10 minutes, while shaking the tray or turning food periodically followed by placing the sample in an appropriate container.

[3] = Curdling / cream / solidification of milk; details: for Curdling of milk: pasteurized whole and fat-free milk
Source text: as §1

[4] = system: grains, legumes, potatoes, garlic; assay: Germination / sprouting of grains, legumes and tubers; details: potatoes
Source text: as §2, §3

O=C1CCCCCC1 [CH, Cycloheptanone]
Spoilage Time - Sample ([1]; Example 91, Blueberry, Sachet, control 5 days): 67 days | Shelf-life of flowery vegetables [2]: extended shelf-life | Effectiveness for controlling one or more spoilage criteria [2]: effective to a greater or lesser extent

OB(O)c1cccc(Cl)c1 [3-chlorophenylboronic acid, 3-Chlorophenylboronic acid]
Effectiveness in extending freshness of cold press fresh juices [1]: effective | Shelf-life of raw milk yogurt ([1]; raw milk yogurt): extended shelf-life | Curdling ([3]; Example 135, fat-free milk): either prevented or significantly delayed | Spoilage Time - Sample (Solid) ([3]; Pasteurized fat free milk, 0.05 g, control 3 days): 14 days | Curdling of milk [3]: delayed curdling | Curdling ([3]; raw cow milk and raw goat milk): delayed curdling

CC1CCC(=O)CC1 [4-methylcyclohexanone]
Shelf-life of flowery vegetables [2]: extended shelf-life | Effectiveness for controlling one or more spoilage criteria [2]: effective to a greater or lesser extent

CCCCN=C=S [butyl isothiocyanate]
Effectiveness in extending freshness of cold press fresh juices [1]: effective | Curdling ([3]; raw cow milk and raw goat milk): delayed curdling

Cc1ccc(N=C=S)cc1 [p-tolyl isothiocyanate]
Curdling ([3]; raw cow milk and raw goat milk): delayed curdling

CC1=CCCC1 [MCP, 1-Methylcyclopentene]
Shelf-life of flowery vegetables [2]: extended shelf-life | Shelf-life of shelled and unshelled peanuts ([2]; peanuts): extended | Effectiveness for controlling one or more spoilage criteria [2]: effective to a greater or lesser extent

S [hydrogen sulfide, Hydrogen sulfide]
Fungus growth ([1]; Example 159, snow peas, Himalayan salt sachet, control 6 days): > 11 days | Spoilage Time - Sample (Fungus) ([1]; Snow peas, Sachet, control 6 days (Example 159)): 11 days | Spoilage Time - Sample (Fungus) ([1]; Snow peas, Sachet, control 11 days (Example 160)): 15 days

Cc1cc(C)cc(B(O)O)c1 [3,5-dimethylphenylboronic acid]
Effectiveness in extending freshness of cold press fresh juices [1]: effective | Curdling of milk [3]: delayed curdling | Curdling ([3]; raw cow milk and raw goat milk): delayed curdling

OB(O)O [boric acid]
Curdling of milk [3]: delayed curdling

Cc1ccc2cccc(O)c2n1 [2-methyl-8-quinolinol]
Effectiveness for controlling one or more spoilage criteria [2]: effective to a greater or lesser extent

O=C1CCCC1 [CP, Cyclopentanone]
Spoilage Time - Sample ([1]; Example 115, Strawberry, Sachet, control 2 days): 5 days | Shelf-life of flowery vegetables [2]: extended shelf-life | Effectiveness for controlling one or more spoilage criteria [2]: effective to a greater or lesser extent

COc1ccccc1B(O)O [2-methoxyphenylboronic acid]
Effectiveness in extending freshness of cold press fresh juices [1]: effective | Curdling ([3]; raw cow milk and raw goat milk): delayed curdling

CC12CCC(CC1=O)C2(C)C (racemic) [(±)-camphor]
Shelf-life of flowery vegetables [2]: extended shelf-life

CC(C)(C)c1ccc(B(O)O)cc1 [4-tert-butylphenylboronic acid, 4-tert-Butylphenylboronic acid]
Shelf-life of tomato juice ([1]; Example 133, fresh cold pressed tomato juice): improve shelf-life | Spoilage Time - Sample (Fungus) ([1]; Tomato juice, 0.20 g, control 4 days): 27 days | Shelf-life of raw milk yogurt ([1]; raw milk yogurt): extended shelf-life | Curdling of milk [3]: delayed curdling | Curdling ([3]; raw cow milk and raw goat milk): delayed curdling

OB(O)c1ccc(Br)cc1 [4-bromophenylboronic acid, 4-Bromophenylboronic acid]
Fungus growth ([1]; Example 134, raw milk yogurt, preservative added, control 3 days): > 5 days | Spoilage Time - Sample (Fungus) ([1]; Raw milk yogurt, 0.10 g, control 3 days): 5 days | Effectiveness in extending freshness of cold press fresh juices [1]: effective | Curdling of milk [3]: delayed curdling | Curdling ([3]; raw cow milk and raw goat milk): delayed curdling

S=C=NCc1ccccc1 [benzyl isothiocyanate]
Curdling ([3]; raw cow milk and raw goat milk): delayed curdling

COC(=O)CC(=O)OC [dimethyl malonate]
Effectiveness for controlling one or more spoilage criteria [2]: effective to a greater or lesser extent

CC1CCCCC1=O (stereo not drawn) [2MC, 2-Methylcyclohexanone]
Fungus growth ([1]; strawberries, raspberries, blackberries and lychee): either prevented or significantly delayed | Shelf-life of flowery vegetables [2]: extended shelf-life | Effectiveness for controlling one or more spoilage criteria [2]: effective to a greater or lesser extent

N.NC(=O)O [ACB, Ammonium carbaminate]
Spoilage Time - Sample (Fungus) ([1]; Fresh, unshelled peanuts, Sachet, control 5 days): 45 days

Cc1ccccc1B(O)O [2-methylphenylboronic acid]
Curdling of milk [3]: delayed curdling

Oc1cccc(O)c1 [resorcinol]
Effectiveness for controlling one or more spoilage criteria [2]: effective to a greater or lesser extent

COC(=O)C1CCCC1=O (stereo not drawn) [methyl cyclopentanone-2-carboxylate]
Effectiveness for controlling one or more spoilage criteria [2]: effective to a greater or lesser extent

N.N.N.O=P(O)(O)O [ammonium phosphate]
Effectiveness at extending the shelf-life of potatoes [4]: effective

COC(=O)c1ccc(B(O)O)cc1 [4-(methoxycarbonyl)phenylboronic acid]
Effectiveness in extending freshness of cold press fresh juices [1]: effective | Curdling of milk [3]: delayed curdling | Curdling ([3]; raw cow milk and raw goat milk): delayed curdling

CCN=C=S [EI, ethyl isothiocyanate]
Spoilage Time - Sample ([1]; Example 85, Tomato juice, 0.02 g, control 4 days): 27 days | Spoilage Time - Sample ([1]; Example 85, Tomato juice, 0.02 g, control 4 days, listed as Ethyl isothiocyanate): improve shelf-life | Effectiveness on ginger ([1]; ginger, pre-exposure and sachet method): found effective | Shelf-life of raw milk yogurt ([1]; raw milk yogurt): extended shelf-life | Spoilage Time - Sample ([3]; Example 84, Cream, Raw cow milk, 0.07 g, control 3 days): 24 days | Spoilage Time - Sample ([3]; Example 86, Solid, Pasteurized whole milk, 0.05 g, control 3 days): 14 days | Spoilage Time - Sample ([3]; Example 86, Solid, Pasteurized whole milk, 0.05 g, control 3 days, listed as ethyl isothiocyanate): either prevented or significantly delayed | Effectiveness at extending the shelf-life of potatoes [4]: effective

CC(=O)CC(C)(C)O [4-hydroxy-4-methyl-2-pentanone]
Effectiveness for controlling one or more spoilage criteria [2]: effective to a greater or lesser extent

CCCCB(O)O [butylboronic acid]
Effectiveness in extending freshness of cold press fresh juices [1]: effective | Shelf-life of raw milk yogurt ([1]; raw milk yogurt): extended shelf-life | Curdling of milk [3]: delayed curdling | Curdling ([3]; raw cow milk and raw goat milk): delayed curdling

c1ccc(COCc2ccccc2)cc1 [benzyl ether, Benzyl Ether]
Fungus growth ([1]; Example 146, ginger, pre-exposed to vapor, control 12 days): > 37 days | Spoilage Time - Sample (Fungus) ([1]; Ginger, 1 hr P-E, control 12 days): 37 days | Effectiveness for controlling one or more spoilage criteria [2]: effective to a greater or lesser extent

O=c1ccc2ccccc2o1 [coumarin]
Effectiveness for controlling one or more spoilage criteria [2]: effective to a greater or lesser extent

COc1cccc(B(O)O)c1 [3-methoxyphenylboronic acid, 3-Methoxyphenylboronic acid]
Fungus growth ([1]; 96 h): > 27 days | Spoilage Time - Sample (Fungus) ([1]; Orange juice with peel, 0.02 g, control 4 days): 27 days | Curdling of milk [3]: delayed curdling | Curdling ([3]; raw cow milk and raw goat milk): delayed curdling

OB(O)c1ccc(-c2ccccc2)cc1 [4-biphenylboronic acid]
Effectiveness in extending freshness of cold press fresh juices [1]: effective | Curdling of milk [3]: delayed curdling | Curdling ([3]; raw cow milk and raw goat milk): delayed curdling
